The record followed here is patent US11931343B2 (ARCUS BIOSCIENCES, INC., priority 2018, dated 2024).

pIC50: −log10 of the molar value.

What is called pIC50 is −log10 of the IC50, conventionally taken in molar units.

The experiment addresses T1, human CD73 (Homo sapiens, UniProt P21589).
T1 sequence (P21589 27-549): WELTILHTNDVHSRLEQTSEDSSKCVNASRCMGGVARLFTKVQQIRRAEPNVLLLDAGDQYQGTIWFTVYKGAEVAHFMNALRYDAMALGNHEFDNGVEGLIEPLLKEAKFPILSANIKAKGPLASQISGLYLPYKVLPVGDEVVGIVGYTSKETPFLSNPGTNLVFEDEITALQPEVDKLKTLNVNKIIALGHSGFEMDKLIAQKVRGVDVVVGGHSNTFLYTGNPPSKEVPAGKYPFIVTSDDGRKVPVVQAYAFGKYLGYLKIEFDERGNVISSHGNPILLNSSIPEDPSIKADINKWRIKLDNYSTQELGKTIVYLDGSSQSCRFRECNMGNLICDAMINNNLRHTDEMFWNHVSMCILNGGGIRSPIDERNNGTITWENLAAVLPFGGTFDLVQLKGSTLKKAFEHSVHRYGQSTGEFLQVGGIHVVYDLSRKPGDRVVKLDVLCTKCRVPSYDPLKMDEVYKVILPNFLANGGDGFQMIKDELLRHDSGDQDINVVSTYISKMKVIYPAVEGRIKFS
Briefly: Inhibition of Ecto-5′-nucleotidase (CD73) activity in CHO-CD73 cells, phosphate release from AMP. Type of experiment: cell-based. To be noted: CHO-K1 cells stably transfected with human CD73; 25 μM AMP; 50 minutes, 37° C.; read-out: Potency: CD73 IC50.
Consider `C=C(C)c1cc(C#N)ccc1Cn1nccc1-c1cc(F)c2nnn(-c3ccc4[nH]c(=O)[nH]c4c3)c2c1` [Example 264], for which the pIC50 is 6.00 to 7.00.
Regarding `O=c1[nH]c2ccc(-n3nnc4c(Cl)cc(-c5ccnn5Cc5cccc[n+]5[O-])cc43)cc2[nH]1` [Example 265], the pIC50 is under 6.00.
The figure for `Cn1ccc(Cn2nccc2-c2cc(F)c3nnn(-c4ccc5[nH]c(=O)[nH]c5c4)c3c2)n1` [Example 266] is under 6.00; for `N#Cc1ccc(Cn2nccc2-c2cc(F)c3nnn(-c4ccc5[nH]c(=O)[nH]c5c4)c3c2)c(Br)c1` [Example 267] it is 6.00 to 7.00.
The figure for `N#Cc1ccc(Cn2nccc2-c2cc(F)c3nnn(-c4ccc5[nH]c(=O)[nH]c5c4)c3c2)c(CN2CCOCC2)c1` [Example 268] is under 6.00; for `N#Cc1cnc(Cn2nccc2-c2cc(Cl)c3nnn(-c4ccc5[nH]c(=O)[nH]c5c4)c3c2)c(Cl)c1` [Example 269] it is 6.00 to 7.00.
The figure for `Cc1cc(C#N)ccc1Cn1nccc1-c1cc(Cl)c2nnn(-c3ccc4[nH]c(=O)[nH]c4c3)c2c1` [Example 270] is over 7.00.
Regarding `N#Cc1ccc(Cn2nccc2-c2cc(F)c3nnn(-c4ccc5[nH]c(=O)[nH]c5c4)c3c2)c(C(F)(F)F)c1` [Example 271], the pIC50 is 6.00 to 7.00.
The figure for `N#Cc1cc(F)c(Cn2nccc2-c2cc(Cl)c3nnn(-c4ccc5[nH]c(=O)[nH]c5c4)c3c2)cc1F` [Example 272] is 6.00 to 7.00.
The figure for `N#Cc1cc(F)c(Cn2nccc2-c2cc(Cl)c3nnn(-c4ccc5[nH]c(=O)[nH]c5c4)c3c2)c(F)c1` [Example 273] is 6.00 to 7.00; for `Nc1nn(-c2ccc3cn[nH]c3c2)c2cc(-c3ccnn3Cc3ccc(Cl)cn3)cnc12` [Example 274] it is 6.00 to 7.00; for `O=c1[nH]c2ccc(-n3nnc4c(Cl)cc(-c5ccnn5C5Cc6ccc(Cl)cc6C5)cc43)cc2[nH]1` (stereo not drawn) [Example 275] it is 6.00 to 7.00.
The figure for `N#Cc1cc(F)c(Cn2nccc2-c2cc(F)c3nnn(-c4ccc5[nH]c(=O)[nH]c5c4)c3c2)c(Cl)c1` [Example 276] is under 6.00.
In the case of `N#Cc1ccc(Cn2nccc2-c2cc(F)c3nnn(-c4ccc5[nH]c(=O)[nH]c5c4)c3c2)c(CN[C@H]2CCOC2)c1` [Example 277], the pIC50 is under 6.00.
Turning to `N#Cc1ccc(Cn2nccc2-c2cc(F)c3nnn(-c4ccc5[nH]c(=O)[nH]c5c4)c3c2)c(CN2CCCC2)c1` [Example 278], the pIC50 is under 6.00.
In the case of `COCc1cc(C#N)ccc1Cn1nccc1-c1cc(F)c2nnn(-c3ccc4[nH]c(=O)[nH]c4c3)c2c1` [Example 279], the pIC50 is 6.00 to 7.00.
The figure for `Cc1cc(C#N)cnc1Cn1nccc1-c1cc(F)c2nnn(-c3ccc4[nH]c(=O)[nH]c4c3)c2c1` [Example 280] is under 6.00; for `N#Cc1ccc(Cn2nccc2-c2cnc3c(N)nn(-c4ccc5cn[nH]c5c4)c3c2)nc1` [Example 281] it is 6.00 to 7.00; for `O=c1[nH]c2ccc(-n3nnc4c(F)cc(-c5ccnn5Cc5cccc(F)c5Cl)cc43)cc2[nH]1` [Example 282] it is 6.00 to 7.00.
The figure for `O=c1[nH]c2ccc(-n3nnc4c(F)cc(-c5ccnn5Cc5cccc(Cl)c5Cl)cc43)cc2[nH]1` [Example 283] is 6.00 to 7.00.
The figure for `COc1cc(Cl)ccc1Cn1nccc1-c1cc(F)c2nnn(-c3ccc4[nH]c(=O)[nH]c4c3)c2c1` [Example 284] is 6.00 to 7.00.
Consider `N#Cc1ccc(Cn2nccc2-c2cc(F)c3nnn(-c4ccc5[nH]c(=O)[nH]c5c4)c3c2)c(CN2CCC2C(=O)O)c1` (stereo not drawn) [Example 285], for which the pIC50 was under 6.00.
The figure for `N#Cc1ccc(Cn2nccc2-c2cc(F)c3nnn(-c4ccc5[nH]c(=O)[nH]c5c4)c3c2)c(CNC2CCCC2)c1` [Example 286] is 6.00 to 7.00.
The figure for `Nc1cccc(Cn2nccc2-c2cc(Cl)c3nnn(-c4ccc5[nH]c(=O)[nH]c5c4)c3c2)n1` [Example 287] is under 6.00.
Regarding `N#Cc1ccc(Cn2nccc2-c2cc(Cl)c3nnn(-c4ccc5[nH]c(=O)[nH]c5c4)c3c2)c(N2CCOCC2)c1` [Example 288], the pIC50 is under 6.00.
In the case of `CC(=O)c1cc(C#N)ccc1Cn1nccc1-c1cc(F)c2nnn(-c3ccc4[nH]c(=O)[nH]c4c3)c2c1` [Example 289], the pIC50 was 6.00 to 7.00.
The figure for `N#Cc1ccc(Cn2nccc2-c2cc(F)c3nnn(-c4ccc5[nH]c(=O)[nH]c5c4)c3c2)c(C(N)=O)c1` [Example 290] is 6.00 to 7.00; for `N#Cc1ccc(Cn2nccc2-c2cc(F)c3nnn(-c4ccc5[nH]c(=O)[nH]c5c4)c3c2)c(S(=O)(=O)c2ccccc2)c1` [Example 291] it is 6.00 to 7.00.
For the compound `N#Cc1ccc(Cn2nccc2-c2cc(F)c3nnn(-c4ccc5[nH]c(=O)[nH]c5c4)c3c2)c(OC(F)(F)F)c1` [Example 292], the pIC50 was 6.00 to 7.00.
Turning to `Cc1cc(-n2nccc2-c2cc(Cl)c3nnn(-c4ccc5[nH]c(=O)[nH]c5c4)c3c2)ccn1` [Example 293], the negative logarithm of the IC50 (pIC50) was 6.00 to 7.00.
The figure for `N#Cc1ccc(Cn2nccc2-c2cc(F)c3nnn(-c4ccc5[nH]c(=O)[nH]c5c4)c3c2)c(CN2CC(C(=O)O)C2)c1` [Example 294] is 6.00 to 7.00; for `Nc1nn(-c2ccc3[nH]c(=O)[nH]c3c2)c2cc(-c3ccnn3Cc3ccc(Cl)cn3)cnc12` [Example 295] it is under 6.00; for `N#Cc1ccc(Cn2nccc2-c2cc(F)c3nnn(-c4ccc5[nH]c(=O)[nH]c5c4)c3c2)c(CNCC2CCCC2)c1` [Example 296] it is 6.00 to 7.00.
The figure for `N#Cc1ccc(Cn2nccc2-c2cc(F)c3nnn(-c4ccc5[nH]c(=O)[nH]c5c4)c3c2)c(CO)c1` [Example 297] is over 7.00; for `N#Cc1ccc(Cn2nccc2-c2cc(F)c3nnn(-c4ccc5[nH]c(=O)[nH]c5c4)c3c2)c(-c2ncco2)c1` [Example 299] it is 6.00 to 7.00.
The figure for `Cc1cc(-n2nccc2-c2cc(Cl)c3nnn(-c4ccc5[nH]c(=O)[nH]c5c4)c3c2)cc(C)n1` [Example 300] is 6.00 to 7.00; for `CS(=O)(=O)c1cccc(-n2nccc2-c2cc(Cl)c3nnn(-c4ccc5[nH]c(=O)[nH]c5c4)c3c2)c1` [Example 301] it is 6.00 to 7.00; for `Cc1cc(C#N)ccc1Cn1nccc1-c1cc(F)c2nnn(-c3ccc4[nH]c(=O)[nH]c4c3)c2c1` [Example 302] it is 6.00 to 7.00.
For `Cn1nccc1-c1cc(C#N)ccc1Cn1nccc1-c1cc(F)c2nnn(-c3ccc4[nH]c(=O)[nH]c4c3)c2c1` [Example 303], the pIC50 is 6.00 to 7.00.
The figure for `N#Cc1ccc(Cn2nccc2-c2cc(F)c3nnn(-c4ccc5[nH]c(=O)[nH]c5c4)c3c2)c(-c2ccn[nH]2)c1` [Example 304] is 6.00 to 7.00.
Turning to `CC(C)(O)C1CN(Cc2cc(C#N)ccc2Cn2nccc2-c2cc(F)c3nnn(-c4ccc5[nH]c(=O)[nH]c5c4)c3c2)C1` [Example 305], the pIC50 was 6.00 to 7.00.
As to `N#Cc1ccc(Cn2nccc2-c2cc(F)c3nnn(-c4ccc5[nH]c(=O)[nH]c5c4)c3c2)c(C(=O)O)c1` [Example 306], the pIC50 is 6.00 to 7.00.
As for `CNC(=O)c1cc(C#N)ccc1Cn1nccc1-c1cc(F)c2nnn(-c3ccc4[nH]c(=O)[nH]c4c3)c2c1` [Example 307], the negative-log IC50 (pIC50) was 6.00 to 7.00.
The figure for `N#Cc1ccc(Cn2nccc2-c2cc(F)c3nnn(-c4ccc5[nH]c(=O)[nH]c5c4)c3c2)c(C(=O)N2CC(O)C2)c1` [Example 308] is under 6.00; for `CCc1cc(C#N)ccc1Cn1nccc1-c1cc(F)c2nnn(-c3ccc4[nH]c(=O)[nH]c4c3)c2c1` [Example 309] it is 6.00 to 7.00.
The figure for `N#Cc1ccc(Cn2nccc2-c2cc(F)c3nnn(-c4ccc5[nH]c(=O)[nH]c5c4)c3c2)c(S(N)(=O)=O)c1` [Example 310] is 6.00 to 7.00; for `N#Cc1ccc(Cn2nccc2-c2cn3c(-c4ccc5[nH]c(=O)[nH]c5c4)cnc3cn2)cc1` [Example 311] it is under 6.00; for `CC(C)(O)c1cc(C#N)ccc1Cn1nccc1-c1cc(F)c2nnn(-c3ccc4[nH]c(=O)[nH]c4c3)c2c1` [Example 312] it is under 6.00.
The figure for `CC(O)c1cc(C#N)ccc1Cn1nccc1-c1cc(F)c2nnn(-c3ccc4[nH]c(=O)[nH]c4c3)c2c1` (stereo not drawn) [Example 313] is 6.00 to 7.00.
As to `N#Cc1ccc(Cn2nccc2-c2cc3c(cn2)c(N)nn3-c2ccc3[nH]c(=O)[nH]c3c2)cc1` [Example 314], the pIC50 was 6.00 to 7.00.
For `N#Cc1ccc(Cn2nccc2-c2cnc3c(N)nn(-c4ccc5[nH]c(=O)[nH]c5c4)c3c2)nc1` [Example 315], the pIC50 was 6.00 to 7.00.
With `Cn1nc(-c2ccc3[nH]c(=O)[nH]c3c2)c2cc(-c3ccnn3Cc3ccc(C#N)cc3)cnc21` [Example 316], the pIC50 was 6.00 to 7.00.
As for `Cc1nn(-c2ccc3cn[nH]c3c2)c2cc(-c3ccnn3Cc3ccc(C#N)cc3)cnc12` [Example 317], the pIC50 is 6.00 to 7.00.
Take `N#Cc1cnc(Cn2nccc2-c2cc(F)c3nnn(-c4ccc5[nH]c(=O)[nH]c5c4)c3c2)c2ccccc12` [Example 318]: the pIC50 was under 6.00.
The figure for `N#CCc1ccc(Cn2nccc2-c2cc(F)c3nnn(-c4ccc5[nH]c(=O)[nH]c5c4)c3c2)cc1` [Example 319] is under 6.00.
The figure for `Cc1coc(-c2cc(C#N)ccc2Cn2nccc2-c2cc(F)c3nnn(-c4ccc5[nH]c(=O)[nH]c5c4)c3c2)n1` [Example 320] is 6.00 to 7.00; for `Cc1cnc(-c2cc(C#N)ccc2Cn2nccc2-c2cc(F)c3nnn(-c4ccc5[nH]c(=O)[nH]c5c4)c3c2)o1` [Example 321] it is 6.00 to 7.00.
